Source: the NIST ThermoML archive (doi:10.1021/je030136n)
Numbers after ± are expanded uncertainties.

Key:
[1] = Liquid, Pulse-echo method
[2] = xn = mol fraction of the nth substance listed; settings: Liquid, Pulse-echo method, x1 = 1

CCCCCCC [heptane]
[1]
Settings	speed of sound [m/s]
293.1 K, 111450 kPa	1674.3 ± 1.3
293.15 K, 100 kPa	1151.7 ± 1.1
293.16 K, 121580 kPa	1707.1 ± 1.4
293.18 K, 30400 kPa	1341.5 ± 1.2
293.19 K, 45590 kPa	1416.6 ± 1.2
293.2 K, 15200 kPa	1256.3 ± 1.1
293.2 K, 60790 kPa	1484.5 ± 1.2
293.2 K, 75990 kPa	1546.5 ± 1.3
293.2 K, 91190 kPa	1603.7 ± 1.3
293.2 K, 101320 kPa	1639.7 ± 1.3
298.11 K, 75990 kPa	1531.6 ± 1.3
298.13 K, 111450 kPa	1660.5 ± 1.5
298.14 K, 121580 kPa	1692.4 ± 1.4
298.15 K, 91190 kPa	1589.4 ± 1.3
298.16 K, 100 kPa	1129.9 ± 1.1
298.16 K, 101320 kPa	1625.7 ± 1.3
298.16 K, 111450 kPa	1660.4 ± 1.5
298.18 K, 45590 kPa	1400.1 ± 1.2
298.19 K, 60790 kPa	1468.7 ± 1.2
303.06 K, 100 kPa	1108.9 ± 1.1
303.07 K, 45590 kPa	1384.4 ± 1.2
303.1 K, 101320 kPa	1612.6 ± 1.3
303.1 K, 121580 kPa	1681.2 ± 1.3
303.13 K, 30400 kPa	1307 ± 1.2
303.15 K, 111450 kPa	1647.6 ± 1.3
303.17 K, 15200 kPa	1218.6 ± 1.1
303.17 K, 75990 kPa	1517.2 ± 1.3
303.18 K, 60790 kPa	1453.7 ± 1.2
303.18 K, 91190 kPa	1575.7 ± 1.3
308.07 K, 30400 kPa	1290.3 ± 1.2
308.07 K, 45590 kPa	1368.7 ± 1.2
308.08 K, 100 kPa	1087.4 ± 1.1
308.08 K, 15200 kPa	1200.4 ± 1.1
308.11 K, 91190 kPa	1562.4 ± 1.3
308.12 K, 60790 kPa	1439 ± 1.2
308.12 K, 75990 kPa	1503.2 ± 1.3
308.17 K, 121580 kPa	1668.6 ± 1.4
308.21 K, 111450 kPa	1634.6 ± 1.3
308.24 K, 101320 kPa	1599.1 ± 1.3
313.1 K, 100 kPa	1066.1 ± 1.1
313.1 K, 15200 kPa	1182 ± 1.1
313.1 K, 75990 kPa	1489.2 ± 1.2
313.12 K, 30400 kPa	1273.3 ± 1.1
313.12 K, 45590 kPa	1353 ± 1.2
313.12 K, 60790 kPa	1424.3 ± 1.2
313.13 K, 91190 kPa	1549 ± 1.3
313.13 K, 121580 kPa	1656.4 ± 1.4
313.2 K, 111450 kPa	1622 ± 1.3
313.21 K, 101320 kPa	1586.2 ± 1.3
318.09 K, 75990 kPa	1475.5 ± 1.3
318.15 K, 91190 kPa	1535.7 ± 1.3
318.17 K, 45590 kPa	1337.4 ± 1.2
318.17 K, 60790 kPa	1409.6 ± 1.2
318.17 K, 121580 kPa	1644.3 ± 1.4
318.18 K, 100 kPa	1044.5 ± 1.1
318.18 K, 15200 kPa	1163.4 ± 1.1
318.18 K, 30400 kPa	1256.5 ± 1.2
318.18 K, 101320 kPa	1573.6 ± 1.3
318.18 K, 111450 kPa	1609.8 ± 1.3

CCCO [propan-1-ol]
[1]
Settings	speed of sound [m/s]
293.12 K, 15200 kPa	1308.5 ± 1
293.16 K, 121580 kPa	1699.1 ± 1.2
293.17 K, 111450 kPa	1669.9 ± 1.2
293.18 K, 101320 kPa	1639.5 ± 1.2
293.19 K, 100 kPa	1223 ± 1
293.2 K, 75990 kPa	1557.2 ± 1.1
293.2 K, 91190 kPa	1607.6 ± 1.2
293.21 K, 45590 kPa	1444.2 ± 1.1
293.21 K, 60790 kPa	1502.8 ± 1.1
293.22 K, 30400 kPa	1379.9 ± 1.1
298.11 K, 15200 kPa	1292.9 ± 1
298.12 K, 100 kPa	1205.9 ± 1
298.14 K, 45590 kPa	1430.7 ± 1.1
298.14 K, 60790 kPa	1490 ± 1.1
298.14 K, 75990 kPa	1544.9 ± 1.1
298.14 K, 91190 kPa	1595.8 ± 1.2
298.14 K, 101320 kPa	1628 ± 1.2
298.14 K, 111450 kPa	1658.8 ± 1.2
298.14 K, 121580 kPa	1688.2 ± 1.2
298.15 K, 30400 kPa	1365.6 ± 1.1
303.12 K, 100 kPa	1188.7 ± 1
303.13 K, 45590 kPa	1417 ± 1.1
303.14 K, 15200 kPa	1277.3 ± 1
303.15 K, 75990 kPa	1532.5 ± 1.1
303.17 K, 91190 kPa	1584 ± 1.2
303.17 K, 101320 kPa	1616.5 ± 1.2
303.18 K, 121580 kPa	1677.4 ± 1.2
303.19 K, 111450 kPa	1647.5 ± 1.2
303.2 K, 60790 kPa	1477 ± 1.1
303.24 K, 30400 kPa	1350.9 ± 1.1
308.11 K, 121580 kPa	1667 ± 1.2
308.12 K, 75990 kPa	1520.4 ± 1.1
308.13 K, 30400 kPa	1336.8 ± 1.1
308.13 K, 45590 kPa	1403.7 ± 1.1
308.13 K, 60790 kPa	1464.5 ± 1.1
308.16 K, 111450 kPa	1636.7 ± 1.2
308.19 K, 101320 kPa	1605.1 ± 1.2
308.2 K, 100 kPa	1171.4 ± 1
308.2 K, 15200 kPa	1263.6 ± 1
308.2 K, 91190 kPa	1572.4 ± 1.2
313.15 K, 91190 kPa	1561.1 ± 1.2
313.15 K, 101320 kPa	1594.1 ± 1.2
313.16 K, 15200 kPa	1248.7 ± 1
313.16 K, 30400 kPa	1322.6 ± 1.1
313.16 K, 45590 kPa	1390.4 ± 1.1
313.16 K, 75990 kPa	1508.5 ± 1.1
313.17 K, 100 kPa	1154.5 ± 1
313.17 K, 60790 kPa	1451.8 ± 1.1
313.17 K, 121580 kPa	1656.2 ± 1.2
313.22 K, 111450 kPa	1625.8 ± 1.2
318.11 K, 101320 kPa	1583.3 ± 1.2
318.12 K, 60790 kPa	1439.6 ± 1.1
318.12 K, 75990 kPa	1496.8 ± 1.1
318.12 K, 91190 kPa	1549.9 ± 1.2
318.14 K, 45590 kPa	1377.4 ± 1.1
318.16 K, 30400 kPa	1308.7 ± 1.1
318.17 K, 111450 kPa	1615.3 ± 1.2
318.17 K, 121580 kPa	1646 ± 1.2
318.2 K, 100 kPa	1137.5 ± 1

CCCO [propan-1-ol] + CCCCCCC
[2]
Settings	speed of sound [m/s]
293.12 K, 15200 kPa	1308.5 ± 1
293.16 K, 121580 kPa	1699.1 ± 1.2
293.17 K, 111450 kPa	1669.9 ± 1.2
293.18 K, 101320 kPa	1639.5 ± 1.2
293.19 K, 100 kPa	1223 ± 1
293.2 K, 75990 kPa	1557.2 ± 1.1
293.2 K, 91190 kPa	1607.6 ± 1.2
293.21 K, 45590 kPa	1444.2 ± 1.1
293.21 K, 60790 kPa	1502.8 ± 1.1
293.22 K, 30400 kPa	1379.9 ± 1.1
298.11 K, 15200 kPa	1292.9 ± 1
298.12 K, 100 kPa	1205.9 ± 1
298.14 K, 45590 kPa	1430.7 ± 1.1
298.14 K, 60790 kPa	1490 ± 1.1
298.14 K, 75990 kPa	1544.9 ± 1.1
298.14 K, 91190 kPa	1595.8 ± 1.2
298.14 K, 101320 kPa	1628 ± 1.2
298.14 K, 111450 kPa	1658.8 ± 1.2
298.14 K, 121580 kPa	1688.2 ± 1.2
298.15 K, 30400 kPa	1365.6 ± 1.1
303.12 K, 100 kPa	1188.7 ± 1
303.13 K, 45590 kPa	1417 ± 1.1
303.14 K, 15200 kPa	1277.3 ± 1
303.15 K, 75990 kPa	1532.5 ± 1.1
303.17 K, 91190 kPa	1584 ± 1.2
303.17 K, 101320 kPa	1616.5 ± 1.2
303.18 K, 121580 kPa	1677.4 ± 1.2
303.19 K, 111450 kPa	1647.5 ± 1.2
303.2 K, 60790 kPa	1477 ± 1.1
303.24 K, 30400 kPa	1350.9 ± 1.1
308.11 K, 121580 kPa	1667 ± 1.2
308.12 K, 75990 kPa	1520.4 ± 1.1
308.13 K, 30400 kPa	1336.8 ± 1.1
308.13 K, 45590 kPa	1403.7 ± 1.1
308.13 K, 60790 kPa	1464.5 ± 1.1
308.16 K, 111450 kPa	1636.7 ± 1.2
308.19 K, 101320 kPa	1605.1 ± 1.2
308.2 K, 100 kPa	1171.4 ± 1
308.2 K, 15200 kPa	1263.6 ± 1
308.2 K, 91190 kPa	1572.4 ± 1.2
313.15 K, 91190 kPa	1561.1 ± 1.2
313.15 K, 101320 kPa	1594.1 ± 1.2
313.16 K, 15200 kPa	1248.7 ± 1
313.16 K, 30400 kPa	1322.6 ± 1.1
313.16 K, 45590 kPa	1390.4 ± 1.1
313.16 K, 75990 kPa	1508.5 ± 1.1
313.17 K, 100 kPa	1154.5 ± 1
313.17 K, 60790 kPa	1451.8 ± 1.1
313.17 K, 121580 kPa	1656.2 ± 1.2
313.22 K, 111450 kPa	1625.8 ± 1.2
318.11 K, 101320 kPa	1583.3 ± 1.2
318.12 K, 60790 kPa	1439.6 ± 1.1
318.12 K, 75990 kPa	1496.8 ± 1.1
318.12 K, 91190 kPa	1549.9 ± 1.2
318.14 K, 45590 kPa	1377.4 ± 1.1
318.16 K, 30400 kPa	1308.7 ± 1.1
318.17 K, 111450 kPa	1615.3 ± 1.2
318.17 K, 121580 kPa	1646 ± 1.2
318.2 K, 100 kPa	1137.5 ± 1
